In patent US11427574B2, “Compounds for treating Rac-GTPase mediated disorder” (Children's Medical Center Corporation, priority 2015, dated 2022):

What was measured:
Rac = Rac activation Elisa on spleen infiltrated by leukemic blasts; format: in vivo; settings: mice, 250 mg/Kg twice a day for 21 days, compared to a vehicle
Method: (§1) Compound 1 was assayed for its pharmacokinetics and anti-leukemia activities in mice. Specifically, a SEM leukemic cell line was labeled with a vector encoding the mCherry tag and Luciferase. 500,000 labeled cells were injected into immunodeficient mice (NSG mice). After establishment of leukemia (as assessed by bioluminescent imaging), mice were treated with Compound 1 at a dose 250 mg/Kg or a vehicle for 21 days twice a day. During treatment, mice were imaged every other day and BLI recorded and analyzed. 2 hours after the last dose, animals were sacrificed and organs harvested for PK and PD analysis.

12 GPCRs = assay: GPCR profiling, whole panel; format: binding; settings: summary of Table 2, antagonist and agonist
Method: (§2) Compound 1 was tested for its efficacy in inhibiting activities of 40 kinases and binding with 12 GPCRs both as an antagonist and an agonist.

Rac1 = Rac1 (Homo sapiens, UniProt P63000); assay: 2D NMR spectroscopy binding assay; settings: 50 μM Rac1 and 250 μM or 400 μM Compound 1
Method: Compound 1 was tested for its efficacy in binding with Rac1 in two independent binding assays, i.e., 2D NMR spectroscopy and Homologous time resolved fluorescence assay (HTRF).
In the 2D NMR assay, samples containing 50 μM Rac1 and 250 μM or 400 μM Compound 1 were used.
Compound 2 was tested for its efficacy in binding with Rac1 in two independent binding assays, i.e., 2D NMR spectroscopy and Homologous time resolved fluorescence assay (HTRF).
In the 2D NMR assay, a sample containing 50 μM Rac1 and 250 μM Compound 2 was used.

RHOA = target: T1, RHOA (Homo sapiens, UniProt P61586); assay: RHOA activation pull down assay (Western blot); format: cell-based; settings: Western Blot (FIG. 11a)
T1 construct: endogenous in cells
Source text: (§3) Compound 1 was further tested to evaluate its effect on RHOA and RAS activation.

PIK3C2A (PI3K-C2 alpha) = PIK3C2A (PI3K-C2 alpha) (Homo sapiens, UniProt O00443); assay: Kinase screening; format: biochemical
Method: as §2

EGFR (ErbB1) = EGFR (ErbB1) (Homo sapiens, UniProt P00533); assay: Kinase screening; format: biochemical
EGFR (ErbB1), sequence (P00533 25-1210, species assumed): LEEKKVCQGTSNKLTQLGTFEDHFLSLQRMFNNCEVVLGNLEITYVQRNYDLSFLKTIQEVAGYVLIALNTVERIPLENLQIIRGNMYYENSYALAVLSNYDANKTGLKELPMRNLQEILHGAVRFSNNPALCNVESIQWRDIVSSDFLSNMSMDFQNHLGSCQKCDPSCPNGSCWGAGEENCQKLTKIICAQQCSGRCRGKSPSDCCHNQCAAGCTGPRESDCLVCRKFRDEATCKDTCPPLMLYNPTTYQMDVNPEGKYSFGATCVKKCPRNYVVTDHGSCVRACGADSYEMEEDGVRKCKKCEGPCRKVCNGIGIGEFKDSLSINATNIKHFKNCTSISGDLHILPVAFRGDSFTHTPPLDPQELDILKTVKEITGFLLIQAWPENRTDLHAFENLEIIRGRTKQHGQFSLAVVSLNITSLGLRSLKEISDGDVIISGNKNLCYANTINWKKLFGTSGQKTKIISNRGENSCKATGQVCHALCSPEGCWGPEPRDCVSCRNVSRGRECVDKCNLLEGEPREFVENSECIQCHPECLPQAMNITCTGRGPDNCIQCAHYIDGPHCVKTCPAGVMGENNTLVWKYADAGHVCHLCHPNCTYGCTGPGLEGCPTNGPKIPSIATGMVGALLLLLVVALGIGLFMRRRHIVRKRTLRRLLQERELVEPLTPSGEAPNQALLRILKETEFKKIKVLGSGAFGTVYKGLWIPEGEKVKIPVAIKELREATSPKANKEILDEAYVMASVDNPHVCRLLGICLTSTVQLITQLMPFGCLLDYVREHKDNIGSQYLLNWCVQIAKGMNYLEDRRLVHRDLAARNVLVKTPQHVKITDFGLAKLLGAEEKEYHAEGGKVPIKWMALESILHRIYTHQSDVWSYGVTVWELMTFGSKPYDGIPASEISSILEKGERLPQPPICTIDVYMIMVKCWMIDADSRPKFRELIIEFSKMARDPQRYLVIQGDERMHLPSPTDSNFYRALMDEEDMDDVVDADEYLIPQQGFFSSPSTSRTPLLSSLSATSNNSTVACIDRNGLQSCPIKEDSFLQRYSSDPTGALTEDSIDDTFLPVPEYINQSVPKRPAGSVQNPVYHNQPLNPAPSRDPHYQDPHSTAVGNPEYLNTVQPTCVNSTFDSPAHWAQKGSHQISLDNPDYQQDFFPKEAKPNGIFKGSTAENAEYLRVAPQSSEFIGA
Method: as §2

PIK3C3 (hVPS34) = PIK3C3 (hVPS34) (Homo sapiens, UniProt Q8NEB9); assay: Kinase screening; format: biochemical
Method: as §2

MAP3K2 (MEKK2) = MAP3K2 (MEKK2) (Homo sapiens, UniProt Q9Y2U5); assay: Kinase screening; format: biochemical
MAP3K2 (MEKK2), sequence (Q9Y2U5 whole entry, species assumed): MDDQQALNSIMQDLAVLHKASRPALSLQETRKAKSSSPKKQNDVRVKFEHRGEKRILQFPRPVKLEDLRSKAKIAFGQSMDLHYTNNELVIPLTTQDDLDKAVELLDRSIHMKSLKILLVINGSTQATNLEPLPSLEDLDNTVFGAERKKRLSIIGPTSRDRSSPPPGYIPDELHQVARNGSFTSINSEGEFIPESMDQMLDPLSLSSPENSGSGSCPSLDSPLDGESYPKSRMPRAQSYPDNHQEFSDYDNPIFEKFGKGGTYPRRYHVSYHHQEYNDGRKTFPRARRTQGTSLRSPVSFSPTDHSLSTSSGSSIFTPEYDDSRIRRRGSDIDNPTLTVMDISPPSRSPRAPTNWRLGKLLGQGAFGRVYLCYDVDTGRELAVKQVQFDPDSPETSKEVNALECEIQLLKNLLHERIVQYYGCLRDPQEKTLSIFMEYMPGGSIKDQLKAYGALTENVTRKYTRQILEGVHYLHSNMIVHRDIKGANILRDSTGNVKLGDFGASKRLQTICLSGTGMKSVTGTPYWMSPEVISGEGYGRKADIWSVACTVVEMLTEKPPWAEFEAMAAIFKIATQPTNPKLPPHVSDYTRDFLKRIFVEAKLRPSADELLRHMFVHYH
Method: as §2

JAK3 = JAK3 (Homo sapiens, UniProt P52333); assay: Kinase screening; format: biochemical
JAK3, sequence (P52333 whole entry, species assumed): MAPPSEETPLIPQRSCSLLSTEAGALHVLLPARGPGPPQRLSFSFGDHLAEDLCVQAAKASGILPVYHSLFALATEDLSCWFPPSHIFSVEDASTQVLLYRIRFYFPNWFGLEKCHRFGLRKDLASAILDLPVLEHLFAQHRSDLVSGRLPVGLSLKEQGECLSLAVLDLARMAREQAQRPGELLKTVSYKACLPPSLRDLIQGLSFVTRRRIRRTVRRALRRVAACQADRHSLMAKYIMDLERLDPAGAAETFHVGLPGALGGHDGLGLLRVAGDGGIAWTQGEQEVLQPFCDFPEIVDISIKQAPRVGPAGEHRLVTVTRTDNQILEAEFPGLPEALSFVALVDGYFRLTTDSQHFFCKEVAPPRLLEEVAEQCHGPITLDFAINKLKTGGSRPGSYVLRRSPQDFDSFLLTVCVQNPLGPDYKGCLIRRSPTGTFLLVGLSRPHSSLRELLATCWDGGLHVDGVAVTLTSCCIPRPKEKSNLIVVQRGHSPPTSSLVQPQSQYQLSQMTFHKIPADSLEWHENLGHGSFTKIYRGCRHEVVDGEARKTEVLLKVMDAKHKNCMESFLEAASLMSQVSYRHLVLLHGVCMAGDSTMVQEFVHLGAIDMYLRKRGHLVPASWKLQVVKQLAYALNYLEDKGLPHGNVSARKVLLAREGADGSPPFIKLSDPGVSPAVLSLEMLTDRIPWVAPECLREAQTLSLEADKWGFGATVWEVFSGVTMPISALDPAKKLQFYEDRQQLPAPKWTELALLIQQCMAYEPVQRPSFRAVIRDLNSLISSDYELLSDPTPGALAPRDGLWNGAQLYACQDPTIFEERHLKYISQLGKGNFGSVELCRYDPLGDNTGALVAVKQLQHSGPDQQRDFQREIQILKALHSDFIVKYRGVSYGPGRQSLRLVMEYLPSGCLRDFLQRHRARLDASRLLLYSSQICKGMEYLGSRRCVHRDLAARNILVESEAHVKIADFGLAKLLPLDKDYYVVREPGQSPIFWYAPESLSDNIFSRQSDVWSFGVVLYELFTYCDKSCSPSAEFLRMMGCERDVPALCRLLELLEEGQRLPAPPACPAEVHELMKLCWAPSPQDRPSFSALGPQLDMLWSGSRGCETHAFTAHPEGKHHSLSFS
Method: as §2

MAPK3 (ERK1) = MAPK3 (ERK1) (Homo sapiens, UniProt P27361); assay: Kinase screening; format: biochemical
Method: as §2

MAPK8 (JNK1) = MAPK8 (JNK1) (Homo sapiens, UniProt P45983); assay: Kinase screening; format: biochemical
MAPK8 (JNK1), sequence (P45983 whole entry, species assumed): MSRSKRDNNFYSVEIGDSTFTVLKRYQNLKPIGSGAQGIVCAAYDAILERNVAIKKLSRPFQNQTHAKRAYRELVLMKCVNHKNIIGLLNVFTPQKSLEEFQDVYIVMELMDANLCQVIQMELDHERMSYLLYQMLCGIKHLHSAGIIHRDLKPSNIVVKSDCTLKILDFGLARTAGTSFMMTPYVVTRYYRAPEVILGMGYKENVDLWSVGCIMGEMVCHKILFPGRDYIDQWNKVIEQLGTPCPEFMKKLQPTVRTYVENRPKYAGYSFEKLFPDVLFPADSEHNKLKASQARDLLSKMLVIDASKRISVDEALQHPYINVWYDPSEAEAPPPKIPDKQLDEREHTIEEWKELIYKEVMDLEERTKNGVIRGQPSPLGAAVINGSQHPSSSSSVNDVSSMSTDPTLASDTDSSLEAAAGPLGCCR
Method: as §2

FRAP1 (mTOR) = FRAP1 (mTOR) (Homo sapiens, UniProt P42345); assay: Kinase screening; format: biochemical
Method: as §2

AKT1 (PKB alpha) = AKT1 (PKB alpha) (Homo sapiens, UniProt P31749); assay: Kinase screening; format: biochemical
AKT1 (PKB alpha), sequence (P31749 whole entry, species assumed): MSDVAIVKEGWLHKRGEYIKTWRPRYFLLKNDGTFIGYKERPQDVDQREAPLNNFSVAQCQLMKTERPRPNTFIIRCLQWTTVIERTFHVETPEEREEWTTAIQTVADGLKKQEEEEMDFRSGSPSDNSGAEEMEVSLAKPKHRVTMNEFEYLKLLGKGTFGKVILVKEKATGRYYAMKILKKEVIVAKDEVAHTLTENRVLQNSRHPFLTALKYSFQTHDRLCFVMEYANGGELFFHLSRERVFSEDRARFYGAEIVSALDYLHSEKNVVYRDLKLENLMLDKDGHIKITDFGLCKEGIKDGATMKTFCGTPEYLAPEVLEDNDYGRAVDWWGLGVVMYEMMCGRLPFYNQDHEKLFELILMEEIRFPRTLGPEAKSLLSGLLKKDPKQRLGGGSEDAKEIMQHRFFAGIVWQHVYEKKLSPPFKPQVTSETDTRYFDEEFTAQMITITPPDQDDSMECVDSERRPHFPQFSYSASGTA
Method: as §2

AKT2 (PKB beta) = AKT2 (PKB beta) (Homo sapiens, UniProt P31751); assay: Kinase screening; format: biochemical
Method: as §2

[1] = target: PIK3CD/PIK3R1 (p110 delta/p85 alpha) (Homo sapiens, UniProt O00329); assay: Kinase screening; format: biochemical
Method: as §2

MAPK9 (JNK2) = MAPK9 (JNK2) (Homo sapiens, UniProt P45984); assay: Kinase screening; format: biochemical
Method: as §2

[2] = target: PIK3CA/PIK3R1 (p110 alpha/p85 alpha) (Homo sapiens, UniProt P42336); assay: Kinase screening; format: biochemical
Method: as §2

ROCK1 = ROCK1 (Homo sapiens, UniProt Q13464); assay: Kinase screening; format: biochemical
Method: as §2

LIMK1 = LIMK1 (Homo sapiens, UniProt P53667); assay: Kinase screening; format: biochemical
LIMK1, sequence (P53667 whole entry, species assumed): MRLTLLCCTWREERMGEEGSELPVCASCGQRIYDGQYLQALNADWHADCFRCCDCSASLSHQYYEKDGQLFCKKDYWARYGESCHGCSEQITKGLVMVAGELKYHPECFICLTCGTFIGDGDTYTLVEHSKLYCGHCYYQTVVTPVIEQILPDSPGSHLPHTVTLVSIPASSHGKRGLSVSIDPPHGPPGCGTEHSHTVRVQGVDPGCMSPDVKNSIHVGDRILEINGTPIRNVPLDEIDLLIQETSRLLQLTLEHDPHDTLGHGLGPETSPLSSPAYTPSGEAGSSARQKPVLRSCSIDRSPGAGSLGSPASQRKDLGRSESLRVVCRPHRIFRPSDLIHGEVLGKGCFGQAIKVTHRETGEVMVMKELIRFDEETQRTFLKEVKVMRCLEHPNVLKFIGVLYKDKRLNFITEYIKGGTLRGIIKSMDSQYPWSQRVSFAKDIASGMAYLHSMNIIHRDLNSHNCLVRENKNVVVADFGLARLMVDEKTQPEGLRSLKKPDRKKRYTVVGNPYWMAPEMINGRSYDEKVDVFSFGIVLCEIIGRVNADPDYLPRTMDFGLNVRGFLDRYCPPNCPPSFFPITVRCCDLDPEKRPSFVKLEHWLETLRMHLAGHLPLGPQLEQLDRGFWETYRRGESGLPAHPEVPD
Method: as §2

PAK2 (PAK65) = PAK2 (PAK65) (Homo sapiens, UniProt Q13177); assay: Kinase screening; format: biochemical
PAK2 (PAK65), sequence (Q13177 whole entry, species assumed): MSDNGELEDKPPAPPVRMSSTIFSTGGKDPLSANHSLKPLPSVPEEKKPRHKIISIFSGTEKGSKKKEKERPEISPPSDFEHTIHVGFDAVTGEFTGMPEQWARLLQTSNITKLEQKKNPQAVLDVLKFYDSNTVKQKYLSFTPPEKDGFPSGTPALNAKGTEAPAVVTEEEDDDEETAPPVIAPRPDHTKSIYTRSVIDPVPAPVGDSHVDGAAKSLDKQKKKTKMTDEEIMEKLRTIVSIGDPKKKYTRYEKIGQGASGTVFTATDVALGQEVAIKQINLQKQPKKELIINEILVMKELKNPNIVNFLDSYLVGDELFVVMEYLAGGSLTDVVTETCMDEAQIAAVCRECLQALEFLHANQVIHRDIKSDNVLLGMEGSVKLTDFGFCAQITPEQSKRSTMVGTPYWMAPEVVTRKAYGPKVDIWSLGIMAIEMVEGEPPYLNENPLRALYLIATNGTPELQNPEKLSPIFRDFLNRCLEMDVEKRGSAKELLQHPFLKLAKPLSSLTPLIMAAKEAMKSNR
Method: as §2

PAK6 = PAK6 (Homo sapiens, UniProt Q9NQU5); assay: Kinase screening; format: biochemical
Method: as §2

EPHB1 = EPHB1 (Homo sapiens, UniProt P54762); assay: Kinase screening; format: biochemical
Method: as §2

SEM leukemic cell line = assay: In vivo SEM leukemia model in NSG mice; settings: 250 mg/Kg twice a day for 21 days
Method: as §1
FIGS. 8b and 8c show the bioluminescence data obtained from the mice treated with Compound 1 and a vehicle when the mice were imaged in a supine position and a prone position, respectively.

SEM cells = assay: Proliferation assay in SEM leukemia cells; format: cell-based; settings: read-out: IC50, inhibition of proliferation
Method: Dose Dependent Inhibition of Proliferation The 100 compounds selected from the initial in silico screen were assayed for inhibition of proliferation in two leukemia cell lines, SEM and P12 by Cell Titer Glo. The cells for the proliferation assay were spun down and re-suspended. The cell suspension was then divided and the compound to be tested added in desired concentrations and subsequently plated. Following an incubation period, the Cell Titer Glo reagent (Promega CellTiter 96® Aqueous Non-Radioactive Cell Proliferation Assay) was added and allowed to incubate. The absorbance is subsequently measured at 490 nm using a plate reader. Each compound was analyzed for its effects on cell proliferation.
The lead compound, i.e. Compound 1, was analyzed for its effect on cell proliferation at various doses on three different leukemia cell lines: SEM, P12, and Loucy. In order to quantitate the percentage inhibition of cell proliferation, Cell Titer Glo analysis was completed as described in Example 2 above.
FIGS. 3a-3c show three graphs illustrating the dose dependent inhibition of proliferation of Compound 1 in SEM, P12, and Loucy cells as measured by MTS assay. […] Compound 1 was further analyzed for its effect on cell apoptosis and cell death using a flow based assay using Annexin V staining. […]

RAS = RAS activation pull down assay (Western blot); format: cell-based; settings: Western Blot (FIG. 11b)
Source text: as §3

SMILES: CCc1ccc(CN(C)C(=O)CCc2nnc(CCc3c[nH]c4ccccc34)o2)nc1 (racemic) [Compound 1]
- Rac activation status in spleen (Rac): reduced Rac activation
- binding to the 12 GPCRs tested (12 GPCRs): no significant binding
- binding to Rac1 by 2D NMR (Rac1): did not indicate any binding
- RHOA activation (RHOA): no significant effect
- inhibition percentage (PIK3C2A (PI3K-C2 alpha)): −1.3 percentage
- inhibition percentage (EGFR (ErbB1)): −10.4 percentage
- inhibition percentage (PIK3C3 (hVPS34)): −12.5 percentage
- inhibition percentage (MAP3K2 (MEKK2)): 5.9 percentage
- inhibition percentage (JAK3): −16.3 percentage
- inhibition percentage (MAPK3 (ERK1)): 6.7 percentage
- inhibition percentage (MAPK8 (JNK1)): 0.4 percentage
- inhibition percentage (FRAP1 (mTOR)): 0.9 percentage
- inhibition percentage (AKT1 (PKB alpha)): −6.7 percentage
- inhibition percentage (AKT2 (PKB beta)): 11.5 percentage
- inhibition percentage [1]: 9.0 percentage
- inhibition percentage (MAPK9 (JNK2)): 10.9 percentage
- inhibition percentage [2]: 11.0 percentage
- inhibition percentage (ROCK1): −4.6 percentage
- inhibition percentage (LIMK1): −1.1 percentage
- inhibition percentage (PAK2 (PAK65)): −8.5 percentage
- inhibition percentage (PAK6): −0.6 percentage
- inhibition percentage (EPHB1): 7.1 percentage
- relative weight of the mice (SEM leukemic cell line; vs vehicle group): nearly identical
- bioluminescence in the mice (SEM leukemic cell line; imaged in supine or prone position, vs vehicle): significantly reduced
- IC50 (SEM cells): 43.8 µM
- RAS activation (RAS): no significant effect
